# ChEMBL document CHEMBL1151557, “Simplified analogs of himbacine displaying potent binding affinity for muscarinic receptors” (Bioorg Med Chem Lett, 1993)
# Assays:
# [1] = molecular target: T1, Muscarinic acetylcholine receptor M1 (Homo sapiens, UniProt P11229); assay: Displacement of [3H]QNB from muscarinic receptor 1 expressed in CHO-K1 cells; assay type: cell-based
# T1 sequence (P11229 whole entry): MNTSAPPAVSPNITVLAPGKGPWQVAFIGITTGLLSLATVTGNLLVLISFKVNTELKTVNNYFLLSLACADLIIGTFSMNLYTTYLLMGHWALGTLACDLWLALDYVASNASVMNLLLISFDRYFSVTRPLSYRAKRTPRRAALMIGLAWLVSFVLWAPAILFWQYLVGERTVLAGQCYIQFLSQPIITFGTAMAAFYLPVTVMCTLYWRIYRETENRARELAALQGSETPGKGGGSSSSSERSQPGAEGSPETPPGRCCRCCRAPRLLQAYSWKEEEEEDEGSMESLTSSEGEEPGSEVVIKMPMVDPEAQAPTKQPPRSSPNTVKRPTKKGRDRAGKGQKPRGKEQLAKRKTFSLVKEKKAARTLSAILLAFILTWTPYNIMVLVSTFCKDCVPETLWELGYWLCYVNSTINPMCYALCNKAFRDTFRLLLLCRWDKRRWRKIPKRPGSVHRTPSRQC
# [2] = molecular target: T2, Muscarinic acetylcholine receptor M2 (Rattus norvegicus, UniProt P10980); assay: Displacement of [3H]QNB from rat brain stem muscarinic receptor 2 (M2)
# T2 sequence (P10980 whole entry): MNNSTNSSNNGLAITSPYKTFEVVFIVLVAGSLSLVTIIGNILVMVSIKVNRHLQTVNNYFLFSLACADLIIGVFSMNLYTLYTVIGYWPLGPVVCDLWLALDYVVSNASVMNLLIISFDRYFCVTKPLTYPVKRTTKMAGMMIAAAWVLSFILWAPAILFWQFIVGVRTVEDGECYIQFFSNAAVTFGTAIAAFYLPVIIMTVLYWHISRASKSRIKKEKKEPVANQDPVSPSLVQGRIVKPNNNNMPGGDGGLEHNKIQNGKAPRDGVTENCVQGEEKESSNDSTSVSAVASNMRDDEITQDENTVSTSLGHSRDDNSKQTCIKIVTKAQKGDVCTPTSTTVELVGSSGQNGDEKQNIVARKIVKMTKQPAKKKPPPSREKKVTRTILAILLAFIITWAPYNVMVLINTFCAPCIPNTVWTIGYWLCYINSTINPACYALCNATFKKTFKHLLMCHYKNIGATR
SMILES,Kd [1] [nM],Kd [2] [nM]
CN1CCCCC1C/C=C/C1c2ccccc2Cc2ccccc21 (stereo not given),5.23,22.6
CN1CCCCC1CCC=C1c2ccccc2Cc2ccccc21 (stereo not given),4.99,7.64
CN1CCCC[C@@H]1/C=C/C1c2ccccc2Cc2ccccc21,1.53,3.17
CN1CCCCC1/C=C/c1c2ccccc2cc2ccccc12 (stereo not given),679,635
CN1CCCC[C@@H]1CC=C1c2ccccc2Cc2ccccc21,11.6,14.5
CN1CCCC[C@H]1CC=C1c2ccccc2Cc2ccccc21,24.2,35
CN1CCCC[C@H]1/C=C/C1c2ccccc2Cc2ccccc21,4.92,2.19
CN1CCCCC1/C=C/C1c2ccccc2Cc2ccccc21 (racemic),1.75,20.5
CN1CCCCC1CC=C1c2ccccc2Cc2ccccc21 (racemic),2.7,3
C[C@@H]1OC(=O)[C@H]2C[C@H]3CCCC[C@@H]3[C@@H](/C=C/[C@H]3CCC[C@H](C)N3C)[C@@H]12 [HIMBACINE],168,9.05
